Data published in patent publication US20240117431A1, “STEM-CELL BASED BIOMARKER DISCOVERY” (THE REGENTS OF THE UNIVERSITY OF CALIFORNIA, priority 2020, published 2024).

How the values were obtained:
UPRT(+)-microglia brains = assay: In vivo labeling of brain RNA in mice transplanted with UPRT-expressing human microglia, biotin dot blot; conditions: IP close to 150 mg/kg, 24-48 hours, FIG. 14
Method: 5-vinyl-uracil (Alfa Aesar #4437903) was prepared in sterile conditions at 4 times the concentration in 100% DMSO, then diluted to 25% DMSO by adding corn oil to a final concentration of 500 mM. The mixture was heated to 37° C. for […] until homogenous. Mice are weighed before intraperitoneal injection (IP) injection to ensure close to 150 mg/kg are injected per treatment. For an (˜20 g) adult mouse typically 60-70 μl are IP injected per treatment. Mice are monitored for signs of distress. After 24-48 hours of treatment, mice were sacrificed and brains were immediately placed into 2 ml of RNAlater and left in 4° C. for 3-5 days. After removing brains from RNAlater, they were homogenized with RNAse-free 1.4 mm steel beads (Next Advance SSB14B-RNA) for 60 seconds and centrifuged at 4° C. for 5 min, maximum speed to separate the fatty layer. The bottom layer is collected, homogenized with 200 ul chloroform and centrifuged for 20 minutes, at 4° C. The aqueous layer is collected and 500 ul isopropanol added. After centrifugation for 30 minutes 4° C., the RNA pellet is washed in 70% Ethanol twice. After removing ethanol, the RNA pellet is resuspended in nuclease-free water and nanodrop to determine the concentration. From each sample, 15 μg of RNA was subjected in tetrazine-biotin ligation at 37° C., 500 RPM for 3 hours. The biotinylated RNA was purified with RNA Zymo Clean and Concentrator #5 and eluted with nuclease-free water. 2 μg of purified RNA was spotted onto a N+ Hybond membrane and UV-crosslinked at 254 nm (120,000 uJ). Membrane is blocked in blocking buffer (0.12 M NaCl, 0.016 M Na2HPO4, 0.008 M NaH2PO4, 0.17 M SDS) and followed by incubation with high sensitivity streptavidin-HRP (Fisher Scientific, Cat #: P121130) at 1:5000 dilution in blocking buffer for 5 minutes. The membrane was washed twice in a Wash A buffer (1:10 dilution of blocking buffer) and twice in Wash B buffer (Tris-saline buffer). It was then incubated for 1-5 min. in ECL Chemiluminescent Substrate (Fisher Scientific, Cat #: P132106) and imaged on a ChemiDoc MP imaging system (Bio-Rad). […]

[1] = tested on: 3×MT-TgUPRT transfected HEK293 cells; assay: RNA fluorescence imaging via IEDDA (confocal microscopy); type: cell-based, Toxoplasma gondii; conditions: 1 mM, 24 hours, tetrazene biotin + fluorophore-streptavidin, FIG. 10A
Method: RNA fluorescence imaging via IEDDA: The cell culture dishes and glass coverslips were coated with poly-D-lysine (10 μg/ml) for 24 h at 37° C. and washed three times with autoclaved water to remove the excessive amount of poly-D lysine. HEK293 cells were seeded on glass coverslips at 2.5×105 in a 6-well plate. Twenty-four hours post-seeding, cells were transiently transfected with 1 μg WT- or MT-TgUPRT using jetPRIME transfection reagent according to the manufacturers manual (Polyplus Transfection, France). Twenty-four hours post-transfection, cells were treated with DMSO or 1 mM 5VU for 24 hours. After labeling, cells were washed 3× with DPBS, fixed and permeabilized for 30 min at room temperature with 3.7% paraformaldehyde and 0.15% Triton-X100. Cells were then washed three times (7 min/each) on orbital shaker with DPBS, blocked with Streptavidin (2 mg/mL in DPBS) for 30 minutes and followed with BSA (1 mg/ml in DPBS, 0.45% NaCl and 0.025% NaN3) for 30 min at room temperature, washed 2× with DPBS. Blocked cells were incubated with 200-500 μL of 1 mM biotin-tetrazine solution in water for 3 hours at 37° C. […] Slides were imaged via fluorescence confocal microscopy using a 63× oil immersion objective on a […] Carl Zeiss microscope. […]

## C=Cc1c[nH]c(=O)[nH]c1=O [compound 2, 5-Vinylpyrimidine-2,4(1H,3H)-dione]
UPRT(+)-microglia brains
  incorporation into brain RNA, UPRT(+)-microglia transplanted: observable signals
  incorporation into brain RNA, UPRT(−)-microglia brains: significant biotin signal was not observed
[1]
  fluorescent signal of labeled RNA: fluorescent signal was observed only in the presence of both 2 and 3×MT-TgUPRT transfected cells
